According to patent publication US20030158403A1, “Nuclease resistant chimeric oligonucleotides” (ISIS Pharmaceuticals, Inc., priority 2001, published 2003):
In the oligonucleotide strings, read from the 5' end, every base follows the letter of its sugar. An asterisk marks phosphorothioate; unmarked linkages are phosphodiester. Other units and linkages are bracketed, terminal groups are in braces. A string of capitals states the bases alone. [L-DNA] = L-2'-deoxythymidine (L-thymidine); d = 2'-deoxy (DNA)

Assays:
Target RNA = assay: Tm values of L-thymidine modified oligonucleotides against RNA; format: binding
[1] = In vivo nuclease stability of L/D-oligonucleotide chimera, IV bolus, organs analyzed by CGE; conditions: 24 h after IV bolus, BalbC mouse
Experimental: Here we report the in vivo nuclease stability of L/D-oligonucleotide chimera in mouse. We synthesized the phosphoramidite and CPG derived from L-thymidine, which was synthesized from a novel route [Jung, E. M.; Xu, Y. Tetrahedron Lett. 1997, 24, 4199-4202]. A 20 mer phosphorothioate oligonucleotide ISIS-120745 (antisense to mouse ICAM-1) was capped with L-2′-deoxy thymidine at 3′and 5′-positions. The oligonucleotide was then administered IV bolus into BalbC mouse. After 24 h. mouse was sacrificed and the oligonucleotide was isolated from different organs. Percentage of full-length oligonucleotide present in different organs were analyzed by CGE.

ISIS 8651: TGCATCCCCCAGGCCACCAT (SEQ ID NO: 4), all P = S; unmodified counterpart of 120745 (dT*dG*dC*dA*dT*dC*dC*dC*dC*dC*dA*dG*dG*dC*dC*dA*dC*dC*dA*dT)
Tm, Target RNA (Target RNA): 68.7 °C
degradation in organs [1]: degraded completely

ISIS 5132: 5′ TCCCGCTGTGATGCATT 3′ (SEQ ID NO: 6), all P = S; unmodified counterpart of 121785 (dT*dC*dC*dC*dG*dC*dT*dG*dT*dG*dA*dT*dG*dC*dA*dT*dT)
Tm, Target RNA (Target RNA): 60.6 °C

ISIS 120745: 5′ T*GC ATC CCC CAG GCC ACC AT*3′; T* = L-Thymidine, all P = S; antisense to mouse ICAM-1 (antisense TGCATCCCCCAGGCCACCAT; sugars from the 5' end [L-DNA]1 d18 [L-DNA]1, all phosphorothioate, methylation of C not given here)
Tm, Target RNA (Target RNA): 66.94 °C
ΔTm (Target RNA; relative to the unmodified parent oligonucleotide): −1.76 °C
intact full-length oligonucleotide isolated from all the major organs [1]: > 90%
